# Experimental data taken from patent publication US11000050B2 (priority 2015, dated 2021).
# Experiments:
# [1] = system: Salmonella enteritidis PT4; set-up: species or system Ross 308 male broilers; conditions: in vivo
# [2] = in vivo
# [3] = set-up: species or system Ross 308 male broilers; conditions: in vivo
smiles,measurement,setting,value
COc1cc(CNC(=O)CCCCC#Cc2ccccc2)ccc1O [phenylcapsaicin],Salmonella counts (ranked) vs control group,[1],consistently lower
same,Salmonella counts vs control chickens on a diet without phenylcapsaicin,[1],numerically had lower
same,caecal colonization of Salmonella enteritidis PT4,[1],not affected
same,differences in ranked numbers of Salmonella counts between control and 20 mg/kg treatment group,[1],highly significant
same,effective dose (most probable range),[1],up to 20 mg/kg
same,next highest Salmonella value in caecal digesta,[1],4.0×10^6 CFU/g
same,two highest Salmonella values in caecal digesta (considered outliers),[1],1.2×10^7 CFU/g
same,BWG with increasing dose level,[2],tendency towards a lower BWG
same,"body weight (BW) vs 0, 20 or 28 mg/kg",[2],significantly lower
same,"body weight gain (BWG) vs 0, 20 or 28 mg/kg",[2],significantly lower
same,daily feed intake,[2],no effect
same,feed conversion ratio vs other Salmonella inoculated treatments,[2],higher
same,feed intake,[2],did not affect
same,BWG,[2]; 36 mg/kg,numerically the lowest
same,FCR,[2]; 36 mg/kg,highest
same,spleen weight,[3],did not affect
